Reference: EPA's ToxRefDB 2

Columns and labels:
[1] = system: rat; settings: Combined chronic toxicity/carcinogenicity, fischer, Oral, Feed, dose end: 105 week, group: systemic
[2] = system: mouse; settings: Carcinogenicity, other, Oral, Feed, dose end: 2 year, group: systemic
[3] = system: rat; settings: Combined chronic toxicity/carcinogenicity; fischer; Oral; Feed; dose end: 2 year; group: systemic; systemic / in life observation / body weight / body weight + systemic / in life observation / body weight / body weight gain
[4] = system: rat; settings: Prenatal developmental toxicity study, fischer, Oral, Gavage/Intubation, dose end: 15 GD
[5] = system: rat; settings: Subchronic oral toxicity in rodents, fischer, Feed, dose end: 13 week, group: systemic
[6] = system: mouse; settings: Carcinogenicity; b6c3f1; Oral; Feed; dose end: 2 year; group: systemic; systemic / in life observation / body weight / body weight
[7] = system: rat; settings: Multigenerational reproductive toxicity study, fischer, Oral, Feed, dose end: 3 generation
[8] = system: mouse; settings: Subchronic oral toxicity in rodents, b6c3f1, Feed, dose end: 13 week, group: systemic, systemic / in life observation / body weight / body weight gain
[9] = system: rabbit; settings: Prenatal developmental toxicity study, new zealand white, Oral, Gavage/Intubation, dose end: 28 GD
[10] = system: mouse; settings: Subchronic oral toxicity in rodents, b6c3f1, Gavage/Intubation, dose end: 13 week, group: systemic
[11] = system: rat; settings: Subchronic oral toxicity in rodents, fischer, Gavage/Intubation, dose end: 13 week, group: systemic
[12] = system: rat; settings: Carcinogenicity, fischer, Oral, Gavage/Intubation, dose end: 103 week, group: systemic
[13] = systemic / in life observation / body weight / body weight + systemic / organ weight / kidney / relative to body weight + systemic / …
[14] = systemic / clinical chemistry / alkaline phosphatase (alp/alk) / alkaline phosphatase (alp/alk) + systemic / clinical chemistry / chloride…
[15] = systemic / clinical chemistry / chloride / chloride + systemic / clinical chemistry / potassium / potassium + systemic / clinical chemistry…
[16] = group: developmental, developmental / developmental malformation / general / crown-rump length + developmental / offspring survival late / viability index / …
[17] = group: maternal, systemic / in life observation / clinical signs / blood around eyes and nose + systemic / in life observation / clinical signs / emaciation…
[18] = systemic / in life observation / body weight / body weight gain
[19] = group: offspring, systemic / in life observation / body weight / offspring (pup) weight
[20] = group: offspring, systemic / in life observation / body weight / offspring (pup) weight + systemic / organ weight / kidney / absolute
[21] = group: parental, systemic / in life observation / body weight / body weight + systemic / pathology microscopic / kidney / casts + systemic / pathology …
[22] = group: developmental, systemic / in life observation / body weight / fetal weight
[23] = group: maternal, systemic / in life observation / body weight / body weight gain + systemic / in life observation / clinical signs / alopecia + systemic / in…
[24] = systemic / in life observation / body weight / body weight + systemic / in life observation / mortality / mortality + systemic / organ …
[25] = systemic / organ weight / heart / absolute + systemic / organ weight / heart / relative to body weight
[26] = systemic / clinical chemistry / alkaline phosphatase (alp/alk) / alkaline phosphatase (alp/alk) + systemic / clinical chemistry / gamma …
[27] = systemic / organ weight / spleen / absolute + systemic / organ weight / spleen / relative to body weight
[28] = systemic / in life observation / body weight / body weight
[29] = systemic / in life observation / body weight / body weight + systemic / pathology microscopic / liver / neoplastic nodule + systemic / in …

**Q.** For `c1ccc(-c2ccccc2)cc1` [Biphenyl], which LOAEL [1, 13] is on record?
**A.** The LOAEL was > 225 mg/kg/day.

**Q.** What about the NEL [1, 13] of the same compound?
**A.** Its NEL is 25 mg/kg/day.

**Q.** What about the NOAEL [1, 13] of the same compound?
**A.** Its NOAEL is ≥ 225 mg/kg/day.

**Q.** And the LEL ([1]; systemic / organ weight / kidney / relative to body weight)?
**A.** Its LEL is 75 mg/kg/day.

**Q.** And the LOAEL [2, 14]?
**A.** The LOAEL was > 1050 mg/kg/day.

**Q.** And the NOAEL [2, 14]?
**A.** Its NOAEL is ≥ 1050 mg/kg/day.

**Q.** What about the LEL [2, 15] of the same compound?
**A.** The LEL was 97 mg/kg/day.

**Q.** What about the NEL [2, 15] of the same compound?
**A.** The NEL was < 97 mg/kg/day.

**Q.** How did the LEL [3] turn out when `O=C1CCCCCN1` [Caprolactam] was run?
**A.** Its LEL is 188 mg/kg/day.

**Q.** What about the LOAEL [3] of the same compound?
**A.** Its LOAEL is 188 mg/kg/day.

**Q.** And the NEL [3]?
**A.** The NEL was < 188 mg/kg/day.

**Q.** And the NOAEL [3]?
**A.** Its NOAEL is < 188 mg/kg/day.

**Q.** And the LEL [4, 16]?
**A.** The LEL was 1000 mg/kg/day.

**Q.** What about the LOAEL [4, 16] of the same compound?
**A.** Its LOAEL is > 1000 mg/kg/day.

**Q.** And the NEL [4, 16]?
**A.** Its NEL is 500 mg/kg/day.

**Q.** What about the NOAEL [4, 16] of the same compound?
**A.** Its NOAEL is ≥ 1000 mg/kg/day.

**Q.** What about the LEL [4, 17] of the same compound?
**A.** The LEL was 100 mg/kg/day.

**Q.** What about the LOAEL [4, 17] of the same compound?
**A.** Its LOAEL is > 1000 mg/kg/day.

**Q.** What about the NEL [4, 17] of the same compound?
**A.** The NEL was < 100 mg/kg/day.

**Q.** And the NOAEL [4, 17]?
**A.** Its NOAEL is ≥ 1000 mg/kg/day.

**Q.** What about the LEL [5, 18] of the same compound?
**A.** Its LEL is 31 mg/kg/day.

**Q.** What about the LOAEL [5, 18] of the same compound?
**A.** The LOAEL was 125 mg/kg/day.

**Q.** And the NEL [5, 18]?
**A.** The NEL was < 31 mg/kg/day.

**Q.** And the NOAEL ([5]; systemic / in life observation / body weight / body weight gain + systemic / in life observation / food consumption / food consumption)?
**A.** Its NOAEL is 63 mg/kg/day.

**Q.** And the LEL [6]?
**A.** The LEL was 1120 mg/kg/day.

**Q.** What about the LOAEL [6] of the same compound?
**A.** Its LOAEL is 1120 mg/kg/day.

**Q.** And the NEL [6]?
**A.** Its NEL is < 1120 mg/kg/day.

**Q.** What about the NOAEL [6] of the same compound?
**A.** Its NOAEL is < 1120 mg/kg/day.

**Q.** And the LEL [7, 19]?
**A.** The LEL was 250 mg/kg/day.

**Q.** What about the NEL [7, 19] of the same compound?
**A.** Its NEL is 50 mg/kg/day.

**Q.** What about the LOAEL [7, 20] of the same compound?
**A.** Its LOAEL is > 500 mg/kg/day.

**Q.** And the NOAEL [7, 20]?
**A.** The NOAEL was ≥ 500 mg/kg/day.

**Q.** What about the NEL ([7]; group: parental, systemic / in life observation / body weight / body weight) of the same compound?
**A.** Its NEL is 250 mg/kg/day.

**Q.** What about the LEL [7, 21] of the same compound?
**A.** Its LEL is 500 mg/kg/day.

**Q.** And the LOAEL [7, 21]?
**A.** The LOAEL was > 500 mg/kg/day.

**Q.** What about the NOAEL [7, 21] of the same compound?
**A.** Its NOAEL is ≥ 500 mg/kg/day.

**Q.** And the LEL [8]?
**A.** The LEL was 750 mg/kg/day.

**Q.** What about the LOAEL [8] of the same compound?
**A.** Its LOAEL is 750 mg/kg/day.

**Q.** What about the NEL [8] of the same compound?
**A.** Its NEL is < 750 mg/kg/day.

**Q.** What about the NOAEL [8] of the same compound?
**A.** The NOAEL was < 750 mg/kg/day.

**Q.** What about the LEL [9, 22] of the same compound?
**A.** Its LEL is 150 mg/kg/day.

**Q.** What about the LOAEL [9, 22] of the same compound?
**A.** Its LOAEL is > 250 mg/kg/day.

**Q.** And the NEL [9, 22]?
**A.** The NEL was 50 mg/kg/day.

**Q.** What about the NOAEL [9, 22] of the same compound?
**A.** Its NOAEL is ≥ 250 mg/kg/day.

**Q.** And the LEL ([9]; group: maternal, systemic / in life observation / body weight / body weight gain)?
**A.** Its LEL is 150 mg/kg/day.

**Q.** What about the LOAEL [9, 23] of the same compound?
**A.** The LOAEL was > 250 mg/kg/day.

**Q.** And the NEL [9, 23]?
**A.** Its NEL is 50 mg/kg/day.

**Q.** And the NOAEL [9, 23]?
**A.** Its NOAEL is ≥ 250 mg/kg/day.

**Q.** With `Clc1ccccc1` [Chlorobenzene] as the compound, how does the LOAEL [10, 24] read?
**A.** Its LOAEL is > 750 mg/kg/day.

**Q.** And the NOAEL [10, 24]?
**A.** Its NOAEL is ≥ 750 mg/kg/day.

**Q.** What about the LEL [10, 25] of the same compound?
**A.** Its LEL is 60 mg/kg/day.

**Q.** And the NEL [10, 25]?
**A.** The NEL was < 60 mg/kg/day.

**Q.** What about the LOAEL [11, 26] of the same compound?
**A.** The LOAEL was > 750 mg/kg/day.

**Q.** And the NOAEL [11, 26]?
**A.** Its NOAEL is ≥ 750 mg/kg/day.

**Q.** And the LEL [11, 27]?
**A.** Its LEL is 60 mg/kg/day.

**Q.** What about the NEL [11, 27] of the same compound?
**A.** Its NEL is < 60 mg/kg/day.

**Q.** What about the LEL [12, 28] of the same compound?
**A.** Its LEL is 60 mg/kg/day.

**Q.** What about the NEL [12, 28] of the same compound?
**A.** The NEL was < 60 mg/kg/day.

**Q.** What about the LOAEL [12, 29] of the same compound?
**A.** The LOAEL was > 120 mg/kg/day.

**Q.** And the NOAEL [12, 29]?
**A.** The NOAEL was ≥ 120 mg/kg/day.
